The target in assay [1] is LRRK2 WT (Homo sapiens, UniProt Q5S007). In words: Cell-based NanoBRET target engagement assay in HEK293 cells transfected with LRRK2 WT-NanoLuc fusion vector. The note with it: compound treatment 1 h. Details: expressed in transfected cells; host or cells: HEK293 (ATCC). The procedure: (§1) Example C. Cell-Based NanoBRET Target Engagement Assay in 11EK293 Cells Transiently Transfected with LRRK2 WT- or LRRK2 (G2019S)-Nano Luc Fusion Vector
(§2) H1EK293 (ATCC) cells were transfected with […] LRRK2 WT or LRRK2 (G2019S) and 9 μg transfection carrier DNA. The transfected cells were treated with the compounds (starting at 1 μM, 10-dose with 3-fold dilution) and reference compounds CEP-701 or Staurosporine (starting at 1 μM, 10-dose with 3-fold dilution); compound treatment time: 1 h. LRRK2 WT and LRRK2 (G2019S) target engagement was measured by NanoBRET assay. Curve fits were performed only when % NanoBret signal at the highest concentration of compounds was less than […]. Assay format: 384-well format, 4000 cells/well. The IC50 values are shown in Table C, wherein “A” corresponds to IC50≤50.0 nM, “B” corresponds to 50.0 nM≤IC50<100.0 nM, “C” corresponds to 100.0 nM≤IC50.
A general note: In BRET a luciferase serves as donor, and the signal depends on an acceptor being close.

In assay [2] the target is LRRK2[G2019S] (Homo sapiens, UniProt Q5S007, G2019S). As to the kind of experiment: Cell-based NanoBRET target engagement assay in HEK293 cells transfected with LRRK2 (G2019S)-NanoLuc fusion vector. Also on record: expressed in transfected cells; host or cells: HEK293 (ATCC). As to conditions: compound treatment 1 h. The procedure: as §1, §2
LRRK2[G2019S], sequence (Q5S007 whole entry G2019S, the tested form may be a part): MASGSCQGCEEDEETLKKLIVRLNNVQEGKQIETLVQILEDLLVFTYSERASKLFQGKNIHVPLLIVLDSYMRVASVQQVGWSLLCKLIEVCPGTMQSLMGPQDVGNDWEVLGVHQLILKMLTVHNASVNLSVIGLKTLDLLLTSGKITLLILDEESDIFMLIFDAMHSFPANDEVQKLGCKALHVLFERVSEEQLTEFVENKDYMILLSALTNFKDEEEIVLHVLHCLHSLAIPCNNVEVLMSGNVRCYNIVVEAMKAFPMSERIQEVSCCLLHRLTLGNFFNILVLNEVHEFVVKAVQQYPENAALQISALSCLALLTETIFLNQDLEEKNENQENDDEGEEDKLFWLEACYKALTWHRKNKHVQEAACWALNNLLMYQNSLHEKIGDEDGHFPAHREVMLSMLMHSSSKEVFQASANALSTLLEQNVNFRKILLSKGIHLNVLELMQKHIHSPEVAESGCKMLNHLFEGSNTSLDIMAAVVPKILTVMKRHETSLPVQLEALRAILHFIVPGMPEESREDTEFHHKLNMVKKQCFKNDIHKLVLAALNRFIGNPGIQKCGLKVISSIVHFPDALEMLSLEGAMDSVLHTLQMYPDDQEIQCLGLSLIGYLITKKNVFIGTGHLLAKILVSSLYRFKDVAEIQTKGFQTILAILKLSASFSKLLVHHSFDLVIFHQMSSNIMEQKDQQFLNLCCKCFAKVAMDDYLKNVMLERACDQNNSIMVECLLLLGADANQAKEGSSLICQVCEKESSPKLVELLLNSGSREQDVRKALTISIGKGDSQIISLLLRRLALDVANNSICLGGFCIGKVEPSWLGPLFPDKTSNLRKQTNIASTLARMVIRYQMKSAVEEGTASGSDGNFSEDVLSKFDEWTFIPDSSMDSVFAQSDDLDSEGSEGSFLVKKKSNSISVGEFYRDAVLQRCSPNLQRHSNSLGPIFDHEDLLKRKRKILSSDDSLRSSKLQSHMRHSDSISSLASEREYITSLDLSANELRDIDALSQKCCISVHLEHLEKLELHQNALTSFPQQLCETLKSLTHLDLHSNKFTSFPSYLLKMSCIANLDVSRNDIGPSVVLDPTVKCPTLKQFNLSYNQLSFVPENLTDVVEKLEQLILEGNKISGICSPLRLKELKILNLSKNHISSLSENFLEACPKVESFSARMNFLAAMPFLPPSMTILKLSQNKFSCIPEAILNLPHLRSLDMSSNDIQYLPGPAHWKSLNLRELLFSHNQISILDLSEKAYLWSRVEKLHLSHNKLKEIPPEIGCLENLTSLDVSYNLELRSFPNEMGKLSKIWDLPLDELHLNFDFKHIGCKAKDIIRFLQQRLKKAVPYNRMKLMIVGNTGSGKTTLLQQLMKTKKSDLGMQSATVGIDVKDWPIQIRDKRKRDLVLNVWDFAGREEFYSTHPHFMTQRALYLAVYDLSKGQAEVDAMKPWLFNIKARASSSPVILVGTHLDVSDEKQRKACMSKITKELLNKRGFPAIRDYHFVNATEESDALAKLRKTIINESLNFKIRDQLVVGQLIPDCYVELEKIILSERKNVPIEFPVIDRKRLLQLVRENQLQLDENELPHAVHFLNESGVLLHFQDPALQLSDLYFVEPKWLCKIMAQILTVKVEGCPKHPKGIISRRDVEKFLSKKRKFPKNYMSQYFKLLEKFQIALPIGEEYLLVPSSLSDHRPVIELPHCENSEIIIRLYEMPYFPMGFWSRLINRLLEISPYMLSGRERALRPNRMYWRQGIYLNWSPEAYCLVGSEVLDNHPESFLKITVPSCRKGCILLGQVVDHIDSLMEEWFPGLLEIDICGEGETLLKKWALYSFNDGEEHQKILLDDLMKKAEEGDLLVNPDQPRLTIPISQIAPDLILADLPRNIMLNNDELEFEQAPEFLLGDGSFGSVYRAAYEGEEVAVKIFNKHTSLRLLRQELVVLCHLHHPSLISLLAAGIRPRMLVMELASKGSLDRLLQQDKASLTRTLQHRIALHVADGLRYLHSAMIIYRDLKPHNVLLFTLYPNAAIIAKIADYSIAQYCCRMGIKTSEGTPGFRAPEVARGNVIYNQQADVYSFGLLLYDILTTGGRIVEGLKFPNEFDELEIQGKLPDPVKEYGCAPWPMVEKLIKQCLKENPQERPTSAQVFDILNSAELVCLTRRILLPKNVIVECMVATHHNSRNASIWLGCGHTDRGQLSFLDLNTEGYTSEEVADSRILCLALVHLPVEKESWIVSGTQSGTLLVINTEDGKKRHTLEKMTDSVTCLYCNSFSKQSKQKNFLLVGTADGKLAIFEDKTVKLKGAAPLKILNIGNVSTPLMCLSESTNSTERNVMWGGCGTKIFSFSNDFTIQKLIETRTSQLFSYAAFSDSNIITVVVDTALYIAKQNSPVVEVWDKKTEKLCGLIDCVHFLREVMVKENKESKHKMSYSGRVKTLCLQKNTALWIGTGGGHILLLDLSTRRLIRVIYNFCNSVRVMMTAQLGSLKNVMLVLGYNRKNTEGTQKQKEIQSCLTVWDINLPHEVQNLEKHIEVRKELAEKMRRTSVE

Data on 26 compounds can be found in US20250248998A1, “LRRK2 Inhibitors” (Brenig Therapeutics, Inc., priority 2022, published 2025).

The term IC50 denotes the concentration that gives 50% inhibition. A lower IC50 goes with inhibition by little substance.

LRRK2 WT, sequence (Q5S007 whole entry, the tested form may be a part): as the sequence (Q5S007 whole entry G2019S, the tested form may be a part) above, with S2019G counted along it

Turning to `Cn1nc(-c2n[nH]c3ccc(OC4(C)CC4)cc23)cc(N2CC(F)C(C)(C)C2)c1=O` (stereo not shown) [Compound 55, 4-(4-fluoro-3,3-dimethyl-pyrrolidin-1-yl)-2-methyl-6-[5-(1-methylcyclopropoxy)-1H-indazol-3-yl]pyridazin-3-one], the IC50 in assay [1] and in assay [2] was not above 50 nM in each case.

As for `Cn1nc(-c2n[nH]c3ccc(OC4(C)CC4)cc23)cc(N2CCCN(CC(C)(C)O)CC2)c1=O` [Compound 84, 4-[4-(2-hydroxy-2-methyl-propyl)-1,4-diazepan-1-yl]-2-methyl-6-[5-(1-methylcyclopropoxy)-1H-indazol-3-yl]pyridazin-3-one], the half-maximal inhibitory concentration (IC50) in assay [1] and in assay [2] was not above 50 nM in each case.

Turning to `CN1CCN(c2cc(-c3n[nH]c4ccc(OC5(C)CC5)cc34)nn(C)c2=O)CC(F)(F)C1` [Compound 64, 4-(6,6-difluoro-4-methyl-1,4-diazepan-1-yl)-2-methyl-6-[5-(1-methylcyclopropoxy)-1H-indazol-3-yl]pyridazin-3-one], the 50% inhibitory concentration (IC50) in assay [1] was 50 to 100 nM; in assay [2], not above 50 nM.

With `Cn1nc(-c2n[nH]c3ccc(OC4(C)CC4)cc23)cc(N2CCOCC(CO)C2)c1=O` (stereo not shown) [Compound 88, 4-[6-(hydroxymethyl)-1,4-oxazepan-4-yl]-2-methyl-6-[5-(1-methylcyclopropoxy)-1H-indazol-3-yl]pyridazin-3-one], the IC50 in assay [1] and in assay [2] was not above 50 nM in each case.

For the compound `CC1(Oc2ccc3[nH]nc(-c4cc(N5CC(F)C(C)(C)C5)c(=O)n(C5CC5)n4)c3c2)CC1` (stereo not shown) [Compound 61, 2-cyclopropyl-4-(4-fluoro-3,3-dimethyl-pyrrolidin-1-yl)-6-[5-(1-methylcyclopropoxy)-1H-indazol-3-yl]pyridazin-3-one], the IC50 in assay [1] and in assay [2] was not above 50 nM throughout.

`Cn1nc(-c2n[nH]c3ccc(OC4(C)CC4)cc23)cc(N2CC(O)C(C)(C)C2)c1=O` (stereo not shown) [Compound 62, 4-(4-hydroxy-3,3-dimethyl-pyrrolidin-1-yl)-2-methyl-6-[5-(1-methylcyclopropoxy)-1H-indazol-3-yl]pyridazin-3-one]: the IC50 in assay [1] and in assay [2] was not above 50 nM in each case.

As to `Cn1nc(-c2n[nH]c3ccc(OC4(C)CC4)cc23)cc(N2CCOC(CO)CC2)c1=O` (stereo not shown) [Compound 92, 4-[7-(hydroxymethyl)-1,4-oxazepan-4-yl]-2-methyl-6-[5-(1-methylcyclopropoxy)-1H-indazol-3-yl]pyridazin-3-one], the IC50 in assay [1] and in assay [2] was not above 50 nM each time.

For `Cn1nc(-c2n[nH]c3ccc(OC4(C)CC4)cc23)cc(N2CCCCC(CO)C2)c1=O` (stereo not shown) [Compound 75, 4-[3-(hydroxymethyl)azepan-1-yl]-2-methyl-6-[5-(1-methylcyclopropoxy)-1H-indazol-3-yl]pyridazin-3-one], the half-inhibitory concentration (IC50) in assay [1] and in assay [2] was not above 50 nM throughout.

For the compound `Cn1nc(-c2n[nH]c3ccc(OC4(C)CC4)cc23)cc(N2CC(F)C3(CC3)C2)c1=O` (stereo not shown) [Compound 57, 4-(7-fluoro-5-azaspiro[2.4]heptan-5-yl)-2-methyl-6-[5-(1-methylcyclopropoxy)-1H-indazol-3-yl]pyridazin-3-one], the IC50 in assay [1] and in assay [2] was not above 50 nM in each case.

`Cn1nc(-c2n[nH]c3ccc(OC4(C)CC4)cc23)cc(N2CCNCC(C)(O)C2)c1=O` (stereo not shown) [Compound 93, 4-(6-hydroxy-6-methyl-1,4-diazepan-1-yl)-2-methyl-6-[5-(1-methylcyclopropoxy)-1H-indazol-3-yl]pyridazin-3-one]: the IC50 in assay [1] and in assay [2] was not below 100 nM in each case.

As for `Cn1nc(-c2n[nH]c3ccc(OC4(C)CC4)cc23)cc(N2CCC(O)C(F)CC2)c1=O` (stereo not shown) [Compound 82, 4-(4-fluoro-5-hydroxy-azepan-1-yl)-2-methyl-6-[5-(1-methylcyclopropoxy)-1H-indazol-3-yl]pyridazin-3-one], the IC50 in assay [1] and in assay [2] was not above 50 nM throughout.

`CN1CCCN(c2cc(-c3n[nH]c4ccc(OC5(C)CC5)cc34)nn(C)c2=O)CC1` [Compound 63, 2-methyl-6-[5-(1-methylcyclopropoxy)-1H-indazol-3-yl]-4-(4-methyl-1,4-diazepan-1-yl)pyridazin-3-one]: the IC50 in assay [1] and in assay [2] was not above 50 nM each time.

Take `Cn1nc(-c2n[nH]c3ccc(OC4(C)CC4)cc23)cc(N2CCCC(C)(O)CC2)c1=O` (stereo not shown) [Compound 79, 4-(4-hydroxy-4-methyl-azepan-1-yl)-2-methyl-6-[5-(1-methylcyclopropoxy)-1H-indazol-3-yl]pyridazin-3-one]: the half-maximal inhibitory concentration (IC50) in assay [1] and in assay [2] was not above 50 nM throughout.

With `Cn1nc(-c2n[nH]c3ccc(OC4(C)CC4)cc23)cc(N2CCC(C)(C)NC(C)(C)C2)c1=O` [Compound 68, 2-methyl-6-[5-(1-methylcyclopropoxy)-1H-indazol-3-yl]-4-(3,3,5,5-tetramethyl-1,4-diazepan-1-yl)pyridazin-3-one], the IC50 in assay [1] and in assay [2] was not below 100 nM each time.

Turning to `CC1(Oc2ccc3[nH]nc(-c4cc(N5CCOCC6(CC6)C5)c(=O)n(C5CC5)n4)c3c2)CC1` [Compound 53, 2-cyclopropyl-6-[5-(1-methylcyclopropoxy)-1H-indazol-3-yl]-4-(5-oxa-8-azaspiro[2.6]nonan-8-yl)pyridazin-3-one], the concentration for half-maximal inhibition (IC50) in assay [1] and in assay [2] was not above 50 nM each time.

Take `CN1CCN(c2cc(-c3n[nH]c4ccc(OC5(C)CC5)cc34)nn(C)c2=O)CCC1C(F)(F)F` (stereo not shown) [Compound 65, 2-methyl-6-[5-(1-methylcyclopropoxy)-1H-indazol-3-yl]-4-[4-methyl-5-(trifluoromethyl)-1,4-diazepan-1-yl]pyridazin-3-one]: the concentration for half-maximal inhibition (IC50) in assay [1] and in assay [2] was not above 50 nM throughout.

In the case of `Cn1nc(-c2n[nH]c3ccc(OC4(C)CC4)cc23)cc(N2CCCOC(C)(C)C2)c1=O` [Compound 73, 4-(2,2-dimethyl-1,4-oxazepan-4-yl)-2-methyl-6-[5-(1-methylcyclopropoxy)-1H-indazol-3-yl]pyridazin-3-one], the values for the 50% inhibitory concentration (IC50) in assay [1] and in assay [2] were 50 to 100 nM and not above 50 nM, respectively.

Take `Cn1nc(-c2n[nH]c3ccc(OC4(C)CC4)cc23)cc(N2CCCCC(C)(O)C2)c1=O` (stereo not shown) [Compound 81, 4-(3-hydroxy-3-methyl-azepan-1-yl)-2-methyl-6-[5-(1-methylcyclopropoxy)-1H-indazol-3-yl]pyridazin-3-one]: the IC50 in assay [1] and in assay [2] was not above 50 nM in each case.

Consider `CC1CCN(c2cc(-c3n[nH]c4ccc(OC5(C)CC5)cc34)nn(C)c2=O)CC(C)O1` (stereo not shown) [Compound 70, 4-(2,7-dimethyl-1,4-oxazepan-4-yl)-2-methyl-6-[5-(1-methylcyclopropoxy)-1H-indazol-3-yl]pyridazin-3-one], for which the concentration for half-maximal inhibition (IC50) in assay [1] and in assay [2] was not above 50 nM in each case.

Consider `Cn1nc(-c2n[nH]c3ccc(OC4(C)CC4)cc23)cc(N2CCOCC(C)(O)C2)c1=O` (stereo not shown) [Compound 90, 4-(6-hydroxy-6-methyl-1,4-oxazepan-4-yl)-2-methyl-6-[5-(1-methylcyclopropoxy)-1H-indazol-3-yl]pyridazin-3-one], for which the half-inhibitory concentration (IC50) in assay [1] and in assay [2] was not above 50 nM each time.

Take `Cn1nc(-c2n[nH]c3ccc(OC4(C)CC4)cc23)cc(N2CCCOCC2)c1=O` [Compound 76, 2-methyl-6-[5-(1-methylcyclopropoxy)-1H-indazol-3-yl]-4-(1,4-oxazepan-4-yl)pyridazin-3-one]: the IC50 in assay [1] and in assay [2] was not above 50 nM each time.

Consider `CC1(Oc2ccc3[nH]nc(-c4cc(N5CC(F)C6(CC6)C5)c(=O)n(C5CC5)n4)c3c2)CC1` (stereo not shown) [Compound 59, 2-cyclopropyl-4-(7-fluoro-5-azaspiro[2.4]heptan-5-yl)-6-[5-(1-methylcyclopropoxy)-1H-indazol-3-yl]pyridazin-3-one], for which the concentration for half-maximal inhibition (IC50) in assay [1] and in assay [2] was not above 50 nM in each case.

For the compound `CC(C)N1CCCN(c2cc(-c3n[nH]c4ccc(OC5(C)CC5)cc34)nn(C)c2=O)CC1` [Compound 96, 4-(4-isopropyl-1,4-diazepan-1-yl)-2-methyl-6-[5-(1-methylcyclopropoxy)-1H-indazol-3-yl]pyridazin-3-one], the half-maximal inhibitory concentration (IC50) in assay [1] and in assay [2] was not above 50 nM throughout.

As for `Cn1nc(-c2n[nH]c3ccc(OC4(C)CC4)cc23)cc(N2CCNC(C(F)(F)F)CC2)c1=O` (stereo not shown) [Compound 74, 2-methyl-6-[5-(1-methylcyclopropoxy)-1H-indazol-3-yl]-4-[5-(trifluoromethyl)-1,4-diazepan-1-yl]pyridazin-3-one], the IC50 in assay [1] and in assay [2] was not above 50 nM in each case.

For `Cn1nc(-c2n[nH]c3ccc(OC4(C)CC4)cc23)cc(N2CCC(C(C)(C)O)C2)c1=O` (stereo not shown) [Compound 85, 4-[3-(1-hydroxy-1-methyl-ethyl)pyrrolidin-1-yl]-2-methyl-6-[5-(1-methylcyclopropoxy)-1H-indazol-3-yl]pyridazin-3-one], the half-inhibitory concentration (IC50) in assay [1] and in assay [2] was not above 50 nM each time.

For the compound `Cn1nc(-c2n[nH]c3ccc(OC4(C)CC4)cc23)cc(N2CCCNC(C)(C)C2)c1=O` [Compound 67, 4-(3,3-dimethyl-1,4-diazepan-1-yl)-2-methyl-6-[5-(1-methylcyclopropoxy)-1H-indazol-3-yl]pyridazin-3-one], the 50% inhibitory concentration (IC50) in assay [1] and in assay [2] was not below 100 nM each time.
